This passage reports IC50 and MIC results from patent publication US12503452B2 (Curza Global, LLC, priority 2019, dated 2025).

Experiment [1] deals with Rabbit Reticulocyte Lysate (eukaryotic protein synthesis). In words: Rabbit reticulocyte lysate luciferase assay (inhibition of eukaryotic protein synthesis). Type of experiment: biochemical. Conditions: class by IC50 or % inhibition @ 1 μM, read-out: Rabbit reticulocyte IC50 (μM/% inhib.). Summed up:
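Compounds were tested in 8-point 2-fold dilution series for blocking luciferase synthesis in nuclease-treated rabbit reticulocyte lysate (30° C., 90 minutes). Luminescence read-out, corrected by no-RNA background, was expressed as % inhibition against water-only reactions.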

Experiment [2] deals with E. faecalis (Ef). Description: Broth microdilution minimum inhibitory concentration (MIC). Type of experiment: cell-based. The following applies: Enterococcus faecalis, E. faecalis; growth medium supplemented with sodium bicarbonate; read-out: Ef + bicarb MIC. Summed up: (§1)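 MICs were run in triplicate per CLSI microdilution (modified, 8 dilution steps), inoculating 5×10^4 CFU/well prepared from colonies grown at 35±2° C to 0.5 McFarland. Media: CAMHB alone, with 6.25 or 25 mM final sodium bicarbonate, or with 0–50% heat-inactivated human serum.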
For orientation: Broth dilution looks for growth in wells or tubes with falling amounts of substance.

In experiment [3] the test system is A. baumannii (Ab). The description is as above. Type of experiment: cell-based. Conditions: Acinetobacter baumannii; A. baumannii; growth medium supplemented with sodium bicarbonate; read-out: Ab + bicarb MIC. Summed up:
as §1

The test system of experiment [4] is S. aureus (Sa). The description is as above. Type of experiment: cell-based. The following applies: Staphylococcus aureus, S. aureus; growth medium supplemented with sodium bicarbonate; read-out: Sa + bicarb MIC. A digest of the protocol:
as §1

The test system of experiment [5] is P. aeruginosa (Pa). The experiment is described as above. Type of experiment: cell-based. The following applies: Pseudomonas aeruginosa, P. aeruginosa; growth medium supplemented with sodium bicarbonate; read-out: Pa MIC + bicarb. A digest of the protocol: as §1
The subject of experiment [6] is E. coli (Ec). The experiment is described as above. Type of experiment: cell-based. The following applies: Escherichia coli, E. coli; growth medium supplemented with sodium bicarbonate; read-out: E. coli + bicarb MIC. Summed up:
as §1

Experiment [7] has as its system E. coli S30 extract (bacterial protein synthesis). In words: E. coli S30 extract coupled transcription-translation luciferase assay (inhibition of bacterial protein synthesis). Type of experiment: biochemical. The following applies: class by IC50 or % inhibition @ 1 μM, read-out: S30 IC50 (μM/% inhib.). A digest of the protocol:
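Luminescent read-out of luciferase made from pBESTluc DNA by E. coli S30 extract after 1 h at 37 °C with compound in an 8-point 2-fold series. Background came from no-DNA reactions. Percent inhibition was calculated against water-only controls.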

For orientation: MIC means the lowest concentration that inhibits growth of the organism.

Turning to `CC(C)(N)C(=O)N1CCN(C(=O)Nc2ccn(-c3ccc(CCCN4CCCC(N)CC4)cc3)c(=O)n2)CC1` (centres unmarked) [Compound 31], the IC50 was > 1 µM in experiment [1] and < 0.5 µM in experiment [7]. Moreover, the minimal inhibitory concentration (MIC) in experiment [2] is 8 to 32 µg/mL; in experiment [3] it was > 32 µg/mL; in experiment [4], < 8 µg/mL; in experiment [5] it was > 32 µg/mL; in experiment [6], < 8 µg/mL.
Turning to `CC(C)(N)C(=O)N1CCN(C(=O)Nc2ccn(-c3ccc(CCCN4CC(N)C4)cc3)c(=O)n2)CC1` [Compound 32], the IC50 in experiment [1] and in experiment [7] was > 1 µM throughout. For the same compound, the MIC is > 32 µg/mL in experiment [2]; > 32 µg/mL in experiment [3]; 8 to 32 µg/mL in experiment [4]; > 32 µg/mL in experiment [5]; 8 to 32 µg/mL in experiment [6].
With `CNC1CCCN(CCc2ccc(-n3ccc(NC(=O)N4CCN(C(=O)C(C)(C)N)CC4)nc3=O)cc2)CC1` (centres unmarked) [Compound 33], the IC50 is > 1 µM in experiment [1] and 0.5 to 1 µM in experiment [7]. Also, the MIC in experiment [2] is > 32 µg/mL; in experiment [3], > 32 µg/mL; in experiment [4], 8 to 32 µg/mL; in experiment [5], > 32 µg/mL; in experiment [6], < 8 µg/mL.
Consider `CC(N)C1CCN(CCc2cccc(-n3ccc(NC(=O)N4CCN(C(=O)C(C)(C)N)CC4)nc3=O)c2)CC1` (centres unmarked) [Compound 34], for which the IC50 in experiment [1] was > 1 µM; in experiment [7], < 0.5 µM. Also, the MIC in experiment [2] is < 8 µg/mL; in experiment [3] it was > 32 µg/mL; in experiment [4], < 8 µg/mL; in experiment [5], > 32 µg/mL; in experiment [6], < 8 µg/mL.
On to `C[C@@](N)(CO)C(=O)N1CCN(C(=O)Nc2ccn(-c3ccc(CCN4CCCC(N)CC4)cc3)c(=O)n2)CC1` (some centres unmarked) [Compound 35], for which the IC50 in experiment [1] and in experiment [7] was > 1 µM in each case. For the same compound, the MIC in experiment [2] was < 8 µg/mL; in experiment [3], > 32 µg/mL; in experiment [4] it was < 8 µg/mL; in experiment [5] it was 8 to 32 µg/mL; in experiment [6] it was < 8 µg/mL.
As for `CC(C)(N)C(=O)N1CCN(C(=O)Nc2ccn(-c3ccc(CN4CCC(N)CC4)cc3)c(=O)n2)CC1` [Compound 57], the IC50 in experiment [1] was > 1 µM; in experiment [7] it was < 0.5 µM. The MIC is 8 to 32 µg/mL in experiment [2]; > 32 µg/mL in experiment [3]; < 8 µg/mL in experiment [4]; > 32 µg/mL in experiment [5]; < 8 µg/mL in experiment [6].
On to `C[C@@H]1CN(C(=O)C(C)(C)N)CCN1C(=O)Nc1ccn(-c2ccc(CN3CCC(N)CC3)cc2)c(=O)n1` [Compound 61], for which the values for the IC50 in experiment [1] and in experiment [7] were > 1 µM and < 0.5 µM, respectively. For the same compound, the MIC was 8 to 32 µg/mL in experiment [2]; > 32 µg/mL in experiment [3]; < 8 µg/mL in experiment [4]; > 32 µg/mL in experiment [5]; < 8 µg/mL in experiment [6].
On to `CC(C)(N)C(=O)N1CCN(C(=O)Nc2ccn(-c3ccc(CN4CCC(N)CC4)cc3)c(=O)n2)C(CO)C1` (centres unmarked) [Compound 62], for which the IC50 in experiment [1] is > 1 µM; in experiment [7], < 0.5 µM. For the same compound, the MIC is > 32 µg/mL in experiment [2]; > 32 µg/mL in experiment [3]; > 32 µg/mL in experiment [4]; > 32 µg/mL in experiment [5]; < 8 µg/mL in experiment [6].
Take `CC(N)C1CCN(Cc2ccc(-n3ccc(NC(=O)N4CCN(C(=O)[C@@](C)(N)CO)[C@H](C)C4)nc3=O)cc2)CC1` (some centres unmarked) [Compound 70]: the IC50 in experiment [1] is > 1 µM; in experiment [7] it was < 0.5 µM. The MIC in experiment [2] was < 8 µg/mL; in experiment [3], > 32 µg/mL; in experiment [4], < 8 µg/mL; in experiment [5], > 32 µg/mL; in experiment [6] it was < 8 µg/mL.
With `C[C@@H]1CN(C(=O)Nc2ccn(-c3ccc(CCN4CCCC(N)CC4)cc3)c(=O)n2)CCN1C(=O)C(C)(C)N` (some centres unmarked) [Compound 71], the figures for the IC50 in experiment [1] and in experiment [7] were > 1 µM and < 0.5 µM, respectively. The MIC in experiment [2] was < 8 µg/mL; in experiment [3], < 8 µg/mL; in experiment [4] it was < 8 µg/mL; in experiment [5] it was 8 to 32 µg/mL; in experiment [6], < 8 µg/mL.
As for `C[C@@H]1CN(C(=O)Nc2ccn(-c3ccc(CN4CCC(N)CC4)cc3)c(=O)n2)CCN1C(=O)C(C)(C)N` [Compound 79], the IC50 in experiment [1] was > 1 µM; in experiment [7], < 0.5 µM. In addition, the MIC in experiment [2] was 8 to 32 µg/mL; in experiment [3], > 32 µg/mL; in experiment [4], < 8 µg/mL; in experiment [5], > 32 µg/mL; in experiment [6] it was < 8 µg/mL.
